Where a name gives a salt, the structure may show the parent alone.
Assays:
[1] = Thermal stability by thermal gravimetric analysis (TGA); format: physicochemical
Description: The thermal stability of samples of treprostinil erbumine salt, prepared as described above, and treprostinil free acid, purchased from a chemical supply company, are analyzed through thermal gravimetric analyses (TGA) performed on a TA Instruments TGA-Q5000 thermal gravimetric analyzer and differential scanning calorimetry (DSC) performed on a TA Instruments Q2000 differential scanning calorimeter. FIGS. 1 (erbumine salt) and 2 (free acid) show overlays of the TGA thermograms from 25-225° C. and the DSC thermograms from 25-300° C. […] DSC data for the erbumine salt show a single endothermic event (likely melt or decomposition) beginning at 143.73° C. and three endothermic events (71.17° C., 95.57° C., and 125.15° C.) for the free acid, corresponding to what is likely a hydrate along with at least two anhydrous crystal forms.

[2] = Hygroscopicity by dynamic vapor sorption/resorption, with XRD of samples from the adsorption/desorption process; format: physicochemical; settings: for weight increase at the 80% relative humidity point: dried samples, sorption in 5% RH steps; for hygroscopicity classification: from weight increase at 80% relative humidity, European Pharmacopoeia monograph 5.11 definitions, experimental conditions differ; for physical form change on humidity exposure (XRD): samples collected at different points in the adsorption/desorption process
Description: Hygroscopicity analyses of treprostinil erbumine salt, prepared as described above, and treprostinil sodium, purchased from a chemical supply company, are performed on a TA Instruments Q5000SA sorption analyzer. Hygroscopicity profiles are generated on dried samples at 25° C., increasing relative humidity by 5% up to 95%, then decreasing in 5% intervals back down to 5% relative humidity. The samples are equilibrated at each increment until weight percent change is <0.0100 for 5 min.

SMILES | TGA weight loss ([1]; between 25-100° C.) [%] | thermally stable up to ([1]; conclusion from TGA/DSC thermal characterization data) | weight increase at the 80% relative humidity point ([2]; 25° C.) [%] | hygroscopicity classification [2] | physical form change on humidity exposure (XRD) [2] | TGA weight loss ([1]; between 26-70° C.) [%] | relative humidity at which desorption of water begins ([2]; 25° C., desorption in 5% RH steps from 95%) [% RH]
CCCCC[C@H](O)CC[C@@H]1[C@H]2Cc3cccc(OCC(=O)O)c3C[C@H]2C[C@H]1O [erbumine salt, 2-[[(1R,2R,3aS,9aS)-2-hydroxy-1-[(3S)-3-hydroxyoctyl]-2,3,3a,4,9,9a-hexahydro-1H-cyclopenta[g]naphthalen-5-yl]oxy]acetic acid t-butylamine] | 0.2318 | at least 100 °C | < 0.2 | non-hygroscopic to slightly hygroscopic | did not show a physical form change | – | –
CCCCC[C@H](O)CC[C@@H]1[C@H]2Cc3cccc(OCC(=O)O)c3C[C@H]2C[C@H]1O [free acid, (1R,2R,3aS,9aS)-[[2,3,3a,4,9,9a-Hexahydro-2-hydroxy-1-[(3S)-3-hydroxyoctyl]-1H-benz[f]inden-5-yl]oxy]acetic acid] | – | – | – | – | – | 1.090 | –
CCCCC[C@H](O)CC[C@@H]1[C@H]2Cc3cccc(OCC(=O)O)c3C[C@H]2C[C@H]1O [sodium salt] | – | – | 25 | very hygroscopic | non-reversible change to amorphous or poorly crystalline state | – | 45

Reference: patent US12102610B2, “Treprostinil salt” (Eli Lilly and Company, priority 2018, dated 2024)
